According to article PMC11402896, “Developmental toxicity and estrogenic activity of antimicrobial phenolic-branched fatty acids using in silico simulations and in vivo and in vitro bioassay” (Frontiers in Toxicology, 2024):

Legend:
[1] = system: estrogen signaling pathway; conditions: cited from earlier work
[2] = system: chicken embryos; set-up: method as in Zhang et al., 2021; conditions: ref Zhang et al., 2021, cited from earlier work; for Mortality rate: chicken embryos, 50 μg/kg dosage
[3] = system: human fibroblast (WS-1); set-up: method as in Günes-Bayir et al., 2018; conditions: dose-dependent manner at 0–100 µM; ref Günes-Bayir et al., 2018; cited from earlier work
[4] = system: gastric adenocarcinoma cells; set-up: method as in Günes-Bayir et al., 2018; conditions: dose-dependent manner at 0–100 µM; ref Günes-Bayir et al., 2018; cited from earlier work
[5] = system: MCF-7 cells; experiment: MCF-7 cell proliferation assay (estrogenic activity); assay type: cell-based; conditions: 10 and 100 nM, p < 0.05, positive control
Method: MCF-7 cells were grown and maintained as previously described ([Peng et al., 2018]). The EA of creosote, creosote-soy BCFA, and iso-oleic acid was investigated at 10 nM to 1 μM. We evaluated EA for newly synthesized phenolic soy BCFAs with a focus on those who have both good performances in antimicrobial activity and low developmental toxicity in the chicken embryo model. Chemicals were dissolved in DMSO and diluted to the test concentrations (0.1% DMSO). No treatment and VC (0.1% DMSO in cell medium) were included as controls. Fresh medium with test compounds was added on day 2 and refreshed every 2 days. After 6-day exposure, cell numbers were measured by MTT assay using a microplate spectrophotometer ([Peng et al., 2018]). The test was repeated in two independent trials with triplicates for each trial, and cell proliferation rates were calculated for each compound.
(§1) All data were reported as the mean ± standard deviation (SD) of at least two independent trials. The MCF-7 cell proliferation rates of each compound at different concentrations were compared using a one-way analysis of variance (ANOVA) followed by Dunnett’s test with the statistical software JMP 16.0. The developmental indexes (REEW, LSI, weights) and TBARS values obtained from chicken embryonic assays were evaluated by a one-way ANOVA followed by Dunnett’s test performed with JMP.

[6] = system: chicken embryo; experiment: Chicken embryonic assay (developmental toxicity, liver TBARS); assay type: in vivo; conditions: for LSI (%) (liver somatic index) / REEW (ratio of embryo to egg weight) / Weights (g) Embryo / Weights (g) Heart / Weights (g) Liver: mean ± SD
Method: In total, 124 fertilized Leghorn eggs were obtained from the University of Delaware research farm. […] On day 6, the eggs were candled, and a hole was drilled for injection of each chemical at two dosage levels, or VC at 0.2 mL. The hole was sealed with Duco Cement, and eggs were placed back in the egg incubator at 38°C and 60% relative humidity. Each test was repeated in two independent trials. The incubation ended on day 18, and the number of dead embryos was recorded during the incubation period. All embryos were dissected and evaluated for deformation, embryo mass, liver mass, heart mass, ratio of embryo to egg weight (REEW), liver somatic index (LSI), and TBARS levels as described in ([Zhang and Wu, 2022]). Each test was repeated in two independent trials and in duplicate for each trial.
as §1
The developmental toxicity of phenolic-soy BCFAs was evaluated at dosages reported for natural phenolics via a chicken embryo model ([Zhang et al., 2021]; [Zhang and Wu, 2022]). In the present study, 0.1% DMSO in PBS was used as VC.

[7] = chicken embryo day 18, dosage 3.1 μg/kg
[8] = chicken embryo day 18, dosage 31 μg/kg
[9] = chicken embryo day 18, egg injection day 6, dosage 3.1 μg/kg
[10] = chicken embryo day 18, egg injection day 6, dosage 31 μg/kg
[11] = chicken embryo day 18, egg injection day 6, dosage 31 μg/kg, listed as phenol

SMILES: Cc1ccc(C(C)C)cc1O [Carvacrol]
- Estrogenic activity (EA) ([1]; at 10^–12 M, ref Zhang et al., 2021): weak EA
- TBARS levels in fetal chicken liver ([2]; 50 μg/kg): significantly increased TBARS levels
- Mortality rate [2]: 45.5%
- Reactive oxygen species generation [3]: induced reactive oxygen species generation
- Reactive oxygen species generation [4]: induced reactive oxygen species generation

SMILES: C[C@]12CC[C@@H]3c4ccc(O)cc4CC[C@H]3[C@@H]1CC[C@@H]2O [E2, 17β-Estradiol]
- Concentration of highest EA ([1]; across the test range from 10^–15 to 10^–4 M, ref Peng et al., 2018): 10 nM
- Concentration of peak EA ([1]; our previous findings, ref not given): 10^−9 M
- Cell proliferation rate compared with no treatment and VC [5]: significantly increased cell proliferation rates

SMILES: Oc1ccccc1 [Phenol]
- LSI (%) (liver somatic index) [6, 7]: 2.20 ± 0.25%
- REEW (ratio of embryo to egg weight) [6, 7]: 0.39 ± 0.014
- Weights (g) Embryo [6, 7]: 23.61 ± 2.74 g
- Weights (g) Heart [6, 7]: 0.21 ± 0.03 g
- Weights (g) Liver [6, 7]: 0.52 ± 0.12 g
- LSI (%) (liver somatic index) [6, 8]: 2.23 ± 0.23%
- REEW (ratio of embryo to egg weight) [6, 8]: 0.36 ± 0.029
- Weights (g) Embryo [6, 8]: 22.04 ± 2.54 g
- Weights (g) Heart [6, 8]: 0.22 ± 0.01 g
- Weights (g) Liver [6, 8]: 0.52 ± 0.04 g
- Malformation rate (%) [6, 9]: 0.0 (0) %
- Mortality rate (%) [6, 9]: 0.0 (0) %
- Mortality rate (%) ([6]; chicken embryo day 18, egg injection day 6, dosage 3.1 μg/kg, listed as phenol): no mortality
- Malformation rate (%) [6, 10]: 12.5 (1) %
- Mortality rate (%) [6, 10]: 0.0 (0) %
- Malformation rate (%) [6, 11]: deformed embryos (stunting) were observed
- Mortality rate (%) [6, 11]: no mortality

SMILES: Cc1ccc(C(C)C)c(O)c1 [Thymol]
- Mortality rate [2]: no death was found
